Assays:
Test in all cases: relative viability (nuclei count vs DMSO), 5 days (fraction); higher = more cells survive
[1] = compound: C1/C(=C\C2=CC=CS2)/C(=O)/C(=C/C3=CC=CS3)/C1
Method in brief: (§1)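 A plate was accepted only when its control CV was below 25% and the cells had doubled at least once. Viability is defined from nuclear counts as treated wells divided by vehicle wells, with the median taken across plates. That median covers lung cancer cell lines grown in 1536-well plates, dosed by pinning at five √10-spaced library-drug concentrations, and counted in MetaXpress from 4× Hoechst images after 5 days.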

TPCA-1 = compound: C1=CC(=CC=C1C2=CC(=C(S2)NC(=O)N)C(=O)N)F [TPCA-1]
Method in brief: as §1

Lestaurtinib = compound: C[C@]12O[C@H](C[C@]1(O)CO)n1c3ccccc3c3c4c(c5c6ccccc6n2c5c31)CNC4=O [Lestaurtinib]
Method in brief: as §1

[2] = compound: C1/C(=C\C2=CC=CS2)/C(=O)/C(=C/C3=CC=CS3)/C1 + Cc1nc(NC(=O)N2CCC[C@H]2C(N)=O)sc1-c1ccnc(C(C)(C)C(F)(F)F)c1 [Alpelisib] (partner 2 µM)
Method in brief: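 Cells from lung cancer lines were seeded into 1536-well plates and, one day later, dosed by pin tool. Treatments were either a single drug or a fixed dose of an anchor drug with five library-drug doses (not always all listed) in √10 steps. After 5 days, nuclei were stained in a one-step fixation (final 0.05% Triton X-100, 1% formaldehyde, 1 ug/ml Hoechst) and counted on 4× images, and relative viability is the treated-to-vehicle nuclei ratio, as the median of duplicate plates.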

Cell Line | relative viability ([1]; 0.2 µM) | relative viability ([1]; 0.6325 µM) | relative viability ([1]; 2 µM) | relative viability ([1]; 6.325 µM) | relative viability ([1]; 20 µM) | relative viability (TPCA-1; 0.04 µM) | relative viability (TPCA-1; 0.1265 µM) | relative viability (TPCA-1; 0.4 µM) | relative viability (TPCA-1; 1.265 µM) | relative viability (TPCA-1; 4 µM) | relative viability (Lestaurtinib; 0.005 µM) | relative viability (Lestaurtinib; 0.01581 µM) | relative viability (Lestaurtinib; 0.05 µM) | relative viability (Lestaurtinib; 0.1581 µM) | relative viability (Lestaurtinib; 0.5 µM) | relative viability ([2]; first compound 0.2 µM) | relative viability ([2]; first compound 0.6325 µM) | relative viability ([2]; first compound 2 µM) | relative viability ([2]; first compound 6.325 µM) | relative viability ([2]; first compound 20 µM)
HOP-62 | 1.1 | 1.02 | 1.01 | 0.928 | 1.01 | 1.02 | 0.97 | 0.956 | 0.943 | 0.852 | 1.02 | 1.11 | 0.921 | 1.12 | 0.452 | 1.01 | 0.741 | 1.09 | 0.764 | 0.93
Calu-6 | 1.06 | 1.05 | 0.993 | 0.944 | 0.985 | 1.06 | 0.95 | 0.982 | 1 | 0.72 | 1.05 | 0.999 | 0.621 | 0.518 | 0.204 | 0.971 | 1.08 | 1.04 | 0.849 | 1.01
NCI-H3122 | 1.03 | 0.986 | 1.05 | 0.892 | 0.975 | 1.04 | 0.924 | 1 | 1.01 | 0.991 | 1.06 | 1.11 | 0.981 | 1.11 | 0.615 | 0.887 | 0.785 | 0.876 | 0.488 | 0.891
NCI-H1395 | 0.912 | 0.876 | 1.11 | 0.833 | 0.945 | 1.01 | 0.916 | 1.02 | 0.811 | 0.703 | 0.886 | 1.04 | 0.759 | 0.759 | 0.462 | 1.1 | 1.04 | 1.17 | 1.02 | 1.08
NCI-H647 | 1.01 | 1.01 | 1.02 | 0.84 | 0.85 | 0.972 | 0.818 | 1.07 | 0.867 | 0.48 | 0.918 | 0.988 | 0.513 | 0.407 | 0.172 | 1.14 | 1.32 | 1.08 | 1 | 1.13
NCI-H650 | 0.973 | 0.885 | 0.956 | 0.984 | 0.906 | 1.03 | 0.823 | 0.946 | 0.488 | 0.557 | 0.953 | 1.03 | 0.844 | 0.46 | 0.403 | 1.2 | 1.19 | 1.19 | 0.935 | 1.05
NCI-H1703 | 1.19 | 1.2 | 1.01 | 0.788 | 0.958 | 1.24 | 0.728 | 0.911 | 0.647 | 0.832 | 0.945 | 0.749 | 0.591 | 0.272 | 0.151 | 0.41 | 0.453 | 0.334 | 0.287 | 0.318
EKVX | 0.984 | 0.928 | 1.15 | 0.772 | 0.961 | 1.05 | 0.829 | 1.04 | 0.815 | 0.737 | 1 | 1.09 | 1.05 | 1.01 | 0.663 | 0.878 | 0.85 | 0.992 | 0.626 | 0.855
EBC-1 | 1.08 | 1.07 | 1.01 | 0.888 | 0.972 | 1.15 | 0.975 | 0.991 | 0.973 | 0.988 | 1.04 | 1.15 | 0.818 | 0.756 | 0.428 | 0.852 | 0.923 | 0.947 | 0.786 | 0.845
NCI-H460 | 1.05 | 1.01 | 1.05 | 0.823 | 0.971 | 1.03 | 0.984 | 1.01 | 1.04 | 0.889 | 1.08 | 1.09 | 1.04 | 1.08 | 0.836 | 0.491 | 0.576 | 0.601 |  | 0.463
LCLC-97TM1 | 1.07 | 0.966 | 1.2 | 0.868 | 0.852 | 1.17 | 0.886 | 0.994 | 0.613 | 0.538 | 0.702 | 1.15 | 0.739 | 0.398 | 0.267 | 0.255 | 0.225 | 0.272 | 0.212 | 0.248
COR-L23 | 1.03 | 1.05 | 1 | 0.865 | 0.947 | 1.03 | 0.924 | 0.968 | 0.986 | 0.857 | 1.08 | 1.13 | 0.633 | 0.829 | 0.166 | 0.772 | 0.829 | 0.818 | 0.722 | 0.686
NCI-H1355 | 1 | 0.967 | 0.995 | 0.833 | 0.963 | 1.09 | 0.89 | 0.94 | 0.859 | 0.751 | 1.07 | 1.01 | 0.777 | 0.582 | 0.508 | 0.794 | 0.722 | 0.758 | 0.72 | 0.804
NCI-H1666 | 1.02 | 1.02 | 0.922 | 0.919 | 0.955 | 1.09 | 0.972 | 0.982 | 0.973 | 0.904 | 1.11 | 1.13 | 1.31 | 0.986 | 0.894 | 1.18 | 0.936 | 0.972 | 0.712 | 0.852
EPLC-272H | 1.13 | 0.925 | 1.01 | 0.833 | 0.786 | 1.06 | 0.881 | 1.12 | 0.805 | 0.676 | 0.801 | 0.748 | 0.607 | 0.444 | 0.304 | 1.1 | 0.881 | 1.05 | 0.831 | 0.841
NCI-H1651 | 0.978 | 1.07 | 0.985 | 0.861 | 0.949 | 1.05 | 0.921 | 0.955 | 1.01 | 0.877 | 0.989 | 1.05 | 0.81 | 1.07 | 0.69 | 1.11 | 0.899 | 1.03 |  | 0.975

Source: the supplement of paper PMC10307832
